Data taken from PubChem BioAssay AID256 (DTP/NCI, 2004).
Values joined by “and” are separate entries in the source; they are usually repeats but may differ in a detail not shown here. Identical values can stand only once. Toxic doses and inconclusive results are not listed.

Test system: CD2F1 mice, L1210 leukemia ip, survival T/C
Assay: NCI In Vivo Anticancer Drug Screen. Data for tumor model L1210 Leukemia (intraperitoneal) in CD2F1 (CDF1) mice
Settings: endpoint: mean survival time, higher = longer survival
How it was run: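 Read-out first: treated-group measurement over vehicle-control measurement, expressed as a ratio. Animals bore a transplanted tumor line and were dosed with compound or vehicle.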

[1] = dose: 100.0 mg/kg/injection, schedule: Q01DX009 (ip), vehicle: saline with Tween-80
[2] = dose: 200.0 mg/kg/injection, schedule: Q04DX003 (ip), vehicle: saline with Tween-80
[3] = dose: 400.0 mg/kg/injection, schedule: Q01DX009 (ip), vehicle: saline with Tween-80
[4] = dose: 100.0 mg/kg/injection, schedule: Q04DX003 (ip), vehicle: saline with Tween-80
[5] = dose: 400.0 mg/kg/injection, schedule: Q04DX003 (ip), vehicle: saline with Tween-80
[6] = dose: 200.0 mg/kg/injection, schedule: Q01DX009 (ip), vehicle: saline with Tween-80

## Cc1cccc2c1CCC(OC(=O)c1cc([N+](=O)[O-])cc([N+](=O)[O-])c1)C2 (stereo not drawn)
[1]
  T/C: 92 % of control
dose: 100.0 mg/kg/injection, schedule: Q04DX003 (ip), vehicle: acetone
  T/C: 98 % of control
dose: 200.0 mg/kg/injection, schedule: Q04DX003 (ip), vehicle: acetone
  T/C: 108 % of control
[2]
  T/C: 89 % of control
[3]
  T/C: 97 % of control
dose: 400.0 mg/kg/injection, schedule: Q04DX003 (ip), vehicle: acetone
  T/C: 101 % of control

## CC(CO)CC/C(=N\O)C(C)C1/C(=N/O)CC2C=C3CC(O)CCC3(C)CC21C (stereo not drawn)
[4]
  T/C: 92 % of control
[2]
  T/C: 92 % of control
[5]
  T/C: 87 % of control

## O=C(CCl)Nc1ccc(Cl)cc1
dose: 25.0 mg/kg/injection, schedule: Q01DX009 (ip), vehicle: Klucel (hydroxypropylcellulose) (HPC)
  T/C: 97 % of control
dose: 50.0 mg/kg/injection, schedule: Q01DX009 (ip), vehicle: Klucel (hydroxypropylcellulose) (HPC)
  T/C: 96 % of control
dose: 50.0 mg/kg/injection, schedule: Q04DX003 (ip), vehicle: Klucel (hydroxypropylcellulose) (HPC)
  T/C: 97 % of control
dose: 100.0 mg/kg/injection, schedule: Q04DX003 (ip), vehicle: Klucel (hydroxypropylcellulose) (HPC)
  T/C: 100 % of control
[4]
  T/C: 106 % of control

## CCN(CC)Cc1cc([N+](=O)[O-])ccc1O
dose: 75.0 mg/kg/injection, schedule: Q01DX001 (ip), vehicle: saline
  T/C: 104 % of control
dose: 150.0 mg/kg/injection, schedule: Q01DX001 (ip), vehicle: saline
  T/C: 100 % of control

## CN=C(N)c1ccc(N=C(N)c2ccc(N=C(N)c3ccc(NC(=O)c4ccc(C(=O)Nc5ccc(C(N)=Nc6ccc(C(N)=Nc7ccc(C(N)=NC)cc7)cc6)cc5)cc4)cc3)cc2)cc1
dose: 62.5 mg/kg/injection, schedule: Q01DX Z (ip), vehicle: water
  T/C: 111 % of control

## Cc1ccn(C)c(=O)c1
dose: 100.0 mg/kg/injection, schedule: Q01DX009 (ip), vehicle: saline
  T/C: 103 % of control
dose: 200.0 mg/kg/injection, schedule: Q01DX009 (ip), vehicle: saline
  T/C: 104 % of control
dose: 400.0 mg/kg/injection, schedule: Q01DX009 (ip), vehicle: saline
  T/C: 101 % of control

## COC(=O)C1C2C=CC(C3C=CC32)C1C(=O)OC (stereo not drawn)
[1]
  T/C: 97 % of control
[6]
  T/C: 94 % of control
[3]
  T/C: 95 % of control

## Nc1nc(N)c2nc(CNc3ccc(C(=O)NC(CCC(=O)O)C(=O)O)cc3)cnc2n1 (stereo not drawn)
dose: 0.2 mg/kg/injection, schedule: Q01DX009 (ip), vehicle: alkali diluted with saline
  T/C: 150 % of control
dose: 0.3 mg/kg/injection, schedule: Q01DX009 (ip), vehicle: alkali diluted with saline
  T/C: 156 % of control
dose: 0.44 mg/kg/injection, schedule: Q01DX009 (ip), vehicle: alkali diluted with saline
  T/C: 174 % of control
dose: 0.67 mg/kg/injection, schedule: Q01DX009 (ip), vehicle: alkali diluted with saline
  T/C: 166 % of control
dose: 0.7 mg/kg/injection, schedule: Q01DX009 (ip), vehicle: alkali diluted with saline
  T/C: 118 % of control
dose: 1.0 mg/kg/injection, schedule: Q01DX009 (ip), vehicle: alkali diluted with saline
  T/C: 114 % of control
dose: 1.1 mg/kg/injection, schedule: Q01DX009 (ip), vehicle: alkali diluted with saline
  T/C: 96 % of control
dose: 1.5 mg/kg/injection, schedule: Q01DX009 (ip), vehicle: alkali diluted with saline
  T/C: 104 % of control
dose: 1.7 mg/kg/injection, schedule: Q01DX009 (ip), vehicle: alkali diluted with saline
  T/C: 86 % of control

## CCN(CC)C(C(=O)Nc1ccccc1)C(=O)Nc1ccccc1
[1]
  T/C: 98 % of control
[6]
  T/C: 93 % of control
[3]
  T/C: 98 % of control

## COC1(O)C(=O)c2ccccc2OC1(OC)c1ccc(Cl)cc1 (stereo not drawn)
dose: 50.0 mg/kg/injection, schedule: Q01DX001 (ip), vehicle: saline
  T/C: 98 % of control
dose: 100.0 mg/kg/injection, schedule: Q01DX001 (ip), vehicle: saline
  T/C: 102 % of control
dose: 200.0 mg/kg/injection, schedule: Q01DX001 (ip), vehicle: saline
  T/C: 98 % of control
dose: 400.0 mg/kg/injection, schedule: Q01DX001 (ip), vehicle: saline
  T/C: 98 % of control

## Clc1ccc2ccc(Cl)cc2c1
[1]
  T/C: 94 % of control
[6]
  T/C: 96 % of control
[3]
  T/C: 105 % of control

## COC(=O)C(CCl)NC(C)=O (stereo not drawn)
[1]
  T/C: 96 % of control and 101 % of control
[6]
  T/C: 96 % of control and 102 % of control
[3]
  T/C: 108 % of control and 98 % of control

## CCN(CC)c1ccc(N=Cc2cc(=O)n(C)c3ccccc23)cc1
dose: 100.0 mg/kg/injection, schedule: Q01DX001 (ip), vehicle: saline with Tween-80
  T/C: 102 % of control
dose: 400.0 mg/kg/injection, schedule: Q01DX001 (ip), vehicle: saline with Tween-80
  T/C: 91 % of control

## O=C(CC(=O)C(F)(F)F)c1ccco1.O=C(CC(=O)C(F)(F)F)c1ccco1.O=C(CC(=O)C(F)(F)F)c1ccco1.[Eu]
[4]
  T/C: 94 % of control
[2]
  T/C: 94 % of control
[5]
  T/C: 89 % of control

## CN1CCC(CCOCc2ccccc2)(CN2c3ccccc3Sc3ccccc32)C1 (stereo not drawn)
dose: 6.25 mg/kg/injection, schedule: Q04DX003 (ip), vehicle: saline with Tween-80
  T/C: 106 % of control
dose: 12.5 mg/kg/injection, schedule: Q04DX003 (ip), vehicle: saline with Tween-80
  T/C: 110 % of control
dose: 25.0 mg/kg/injection, schedule: Q04DX003 (ip), vehicle: saline with Tween-80
  T/C: 104 % of control
